Reference: patent publication US6514957B1, “Method of alleviating the violence and stimulating the appetite of stag in the puberty age of the fall and method of promoting the growth of stag's horn” (priority 2001, dated 2003)
“And” between values parts separate entries of the source, which are not always exact repeats. Identical values can stand only once. “Also recorded” adds a separate entry of the source.

What was measured:
[1] = system: stags of elk, violent and anorexia in the puberty age of the fall; assay: Alleviating the violence and stimulating the appetite of stags in the puberty age of the fall; type: in vivo
Description: To 4 stags of elk, each in the weight of 500 kg, which is violent and anorexia in the puberty age of the fall, 17β-decanoate-4-estrene-3-one 500 mg (effective dose corresponding to 1 mg per 1 kg of the weight of stag: “ANABOLIN FORTE” is the trademark manufactured by Alfasan in Nederland and containing 17β-decanoate-4-estrene-3-one 50 mg in a injection product 1 ml; “ANABOLIN FORTE 10 ml” is the trademark imported by BUM-HAN PHARM. in Korea) was intramuscularly-injected.
To 8 stags of elk, each in the weight of 500 kg, which is violent and anorexia in the puberty age of the fall, 17β-decanoate-4-estrene-3-one 50 mg, 100 mg, 250 mg, 500 mg, 750 mg, 1,000 mg, 2,500 mg and 5,000 mg (effective doses corresponding to 0.1 mg, 0.2 mg, 0.5 mg, 1.0 mg, 1.5 mg, 2.0 mg, 5.0 mg and 10 mg per 1 kg of the weight of stag: “ANABOLIN FORTE” is the trademark manufactured by Alfasan in Nederland and containing 17β-decanoate-4-estrene-3-one 50 mg in a injection product 1 ml; “ANABOLIN FORTE 1 ml, 2 ml, 5 ml, 10 ml, 15 ml, 20 ml, 50 ml and 100 ml” is the trademark imported by BUM-HAN PHARM. in Korea) were injected-injected.
Example 6 was the same as Example 1, except that Example 6 substituted 17β-cyclohexylpropionate-4-estrene-3-one for 17β-decanoate-4-estrene-3-one.
Example 7 was the same as Example 2, except that Example 7 substituted 17β-cyclohexylpropionate-4-estrene-3-one for 17β-decanoate-4-estrene-3-one.
Example 10 was the same as Example 2, except that Example 9 substituted a compound of 17β-decanoate-4-estrene-3-one and 17β-cyclohexylpropionate-4-estrene-3-one for 17β-decanoate-4-estrene-3-one.

[2] = system: stags of elk of which the first horn was cut in the summer; assay: Promoting the growth of the second stag's horn after cutting the first horn; type: in vivo; conditions: for Growth and development progress of the second stag's horn: 500 mg (1 mg/kg) injected Oct. 2, 1999 or Oct. 2, 2000
Description: To 4 stags of elk, of which the first horn coming up in the spring and growing cut in the summer, each in the weight of 500 kg, 17β-decanoate-4-estrene-3-one 500 mg (effective dose corresponding to 1 mg per 1 kg of the weight of stag: “ANABOLIN FORTE” is the trademark manufactured by Alfasan in Nederland and containing 17β-decanoate-4-estrene-3-one 50 mg in a injection product 1 ml; “ANABOLIN FORTE 10 ml” is the trademark imported by BUM-HAN PHARM. in Korea) was injected-injected.
To 8 stags of elk, each in the weight of 500 kg, of which the first horn coming up in the spring and grown up cuts in the summer, 17β-decanoate-4-estrene-3-one 50 mg, 100 mg, 250 mg, 500 mg, 750 mg, 1,000 mg, 2,500 mg and 5,000 mg (effective doses corresponding to 0.1 mg, 0.2 mg, 0.5 mg, 1.0 mg, 1.5 mg, 2.0 mg, 5.0 mg and 10 mg per 1 kg of the weight of stag: “ANABOLIN FORTE” is the trademark manufactured by Alfasan in Nederland and containing 17β-decanoate-4-estrene-3-one 50 mg in a injection product 1 ml; “ANABOLIN FORTE 1 ml, 2 ml, 5 ml, 10 ml, 15 ml, 20 ml, 50 ml and 100 ml” is the trademark imported by BUM-HAN PHARM. in Korea) were injected-injected.
Example 8 was the same as Example 3, except that Example 8 substituted 17β-cyclohexylpropionate-4-estrene-3-one for 17β-decanoate-4-estrene-3-one.
Example 9 was the same as Example 5, except that Example 9 substituted 17β-cyclohexylpropionate-4-estrene-3-one for 17β-decanoate-4-estrene-3-one.
Example 11 was the same as Example 3, except that Example 9 substituted a compound of 17β-decanoate-4-estrene-3-one and 17β-cyclohexylpropionate-4-estrene-3-one for 17β-decanoate-4-estrene-3-one.

[3] = Elk 5, 500 kg, dose 50 mg (0.1 mg/kg) injected
[4] = Elk 6, 500 kg, dose 100 mg (0.2 mg/kg) injected
[5] = Elk 7, 500 kg, dose 250 mg (0.5 mg/kg) injected
[6] = Elk 8, 500 kg, dose 500 mg (1.0 mg/kg) injected
[7] = Elk 9, 500 kg, dose 750 mg (1.5 mg/kg) injected
[8] = Elk 10, 500 kg, dose 1,000 mg (2.0 mg/kg) injected
[9] = Elk 11, 500 kg, dose 2,500 mg (5.0 mg/kg) injected
[10] = Elk 12, 500 kg, dose 5,000 mg (10 mg/kg) injected
[11] = elk stags 500 kg, doses 0.1, 0.2, 0.5, 1.0, 1.5, 2.0, 5.0 and 10 mg per kg

C[C@]12CC[C@H]3[C@@H](CCC4=CC(=O)CC[C@@H]43)[C@@H]1CC[C@@H]2OC(=O)CCC1CCCCC1 [17β-cyclohexylpropionate-4-estrene-3-one]
test results (violence, appetite) compared with 17β-decanoate-4-estrene-3-one ([1]; conducted as Example 1: 500 mg (1 mg/kg) intramuscular, elk stags 500 kg): the same as those of Example 1
test results (violence, appetite) compared with 17β-decanoate-4-estrene-3-one ([1]; conducted as Example 2: 50 to 5,000 mg (0.1 to 10 mg/kg), elk stags 500 kg): the same as those of Example 2
test results (growth and production amount of the second stag's horn) compared with 17β-decanoate-4-estrene-3-one ([2]; conducted as Example 3: 500 mg (1 mg/kg), elk stags 500 kg): the same as those of Example 3
test results (production amount of the second stag's horn by dose) compared with 17β-decanoate-4-estrene-3-one ([2]; conducted as Example 5: 50 to 5,000 mg (0.1 to 10 mg/kg), elk stags 500 kg): the same as those of Example 5

CCCCCCCCCC(=O)O[C@H]1CC[C@H]2[C@@H]3CCC4=CC(=O)CC[C@@H]4[C@H]3CC[C@]12C [17β-decanoate-4-estrene-3-one]
Status After: appetite [1, 3]: Stimulating appetite
Status After: violence [1, 3]: Alleviating violence
Status After: appetite [1, 4]: Stimulating appetite
Status After: violence [1, 4]: Alleviating violence
Status After: appetite [1, 5]: Stimulating appetite
Status After: violence [1, 5]: Alleviating violence
Status After: appetite [1, 6]: Stimulating appetite
Status After: violence [1, 6]: Alleviating violence
Status After: appetite [1, 7]: Stimulating appetite
Status After: violence [1, 7]: Alleviating violence
Status After: appetite [1, 8]: Stimulating appetite
Status After: violence [1, 8]: Alleviating violence
Status After: appetite [1, 9]: Stimulating appetite
Status After: violence [1, 9]: Alleviating violence
Status After: appetite [1, 10]: Stimulating appetite
Status After: violence [1, 10]: Alleviating violence
Status After: appetite ([1]; elk stags 500 kg, anorexia before, 500 mg (1 mg/kg) intramuscularly injected 2000.10.2, individual Elk 1-4): stimulated in appetite; also recorded: Stimulating appetite
Status After: violence ([1]; elk stags 500 kg, violent before, 500 mg (1 mg/kg) intramuscularly injected 2000.10.2, individual Elk 1-4): less violent; also recorded: Alleviating violence
intake of feed ([1]; elk stags 500 kg, 1.0 mg/kg intramuscularly injected): increasing the intake of feed
appetite after injection [1, 11]: stimulated in appetite
intake of feed [1, 11]: increasing the intake of feed
violence after injection [1, 11]: less violent
Growth and development progress of the second stag's horn ([2]; 0 days after administration, individual Elk 21, 22 (500 kg)): 0 cm
production amount of the second stag's horn relative to that of the first stag's horn ([2]; 1 mg/kg injected, elk 500 kg): about 80%
time from administration until the second stag's horn comes up ([2]; 1 mg/kg intramuscularly injected, elk 500 kg): 30 days
growth rate of the second stag's horn ([2]; 1 mg/kg intramuscularly injected, elk 500 kg, after the horn came up): 3 cm per a day
Production amount of stag's horn: the second horn collected in the next spring ([2]; 500 mg (1 mg/kg) injected 1999.10.2 or 2000.10.2, individual Elk 21, 22 (500 kg)): 12 kg (2×) and 9.6 kg (2×)
Growth and development progress of the second stag's horn ([2]; 10 days after administration, individual Elk 21, 22 (500 kg)): 0 cm
Growth and development progress of the second stag's horn ([2]; 20 days after administration, individual Elk 21, 22 (500 kg)): 0 cm
Growth and development progress of the second stag's horn ([2]; 30 days after administration, individual Elk 21, 22 (500 kg)): 0.5 cm
Growth and development progress of the second stag's horn ([2]; 40 days after administration, individual Elk 21, 22 (500 kg)): approximately 30 cm and 30 cm
Growth and development progress of the second stag's horn ([2]; 50 days after administration, individual Elk 21, 22 (500 kg)): 40 cm
Growth and development progress of the second stag's horn ([2]; 60 days after administration, individual Elk 21, 22 (500 kg)): 60 cm
Growth and development progress of the second stag's horn ([2]; 70 days after administration, individual Elk 21, 22 (500 kg)): 80 cm
Growth and development progress of the second stag's horn ([2]; 80 days after administration, individual Elk 21, 22 (500 kg)): 90 cm and 100 cm (3×)
Growth and development progress of the second stag's horn ([2]; 90 days after administration, individual Elk 21, 22 (500 kg)): 100 cm and 110 cm (2×) and 120 cm
Growth and development progress of the second stag's horn ([2]; 100 days after administration, individual Elk 21, 22 (500 kg)): 100 cm and 110 cm (2×) and 120 cm
Production amount of stag's horn: the second horn collected in the next spring ([2]; Elk 31, 500 kg, dose 50 mg (0.1 mg/kg), first horn 15 kg): 5 kg
Production amount of stag's horn: the second horn collected in the next spring ([2]; Elk 32, 500 kg, dose 100 mg (0.2 mg/kg), first horn 15 kg): 5 kg
Production amount of stag's horn: the second horn collected in the next spring ([2]; Elk 33, 500 kg, dose 250 mg (0.5 mg/kg), first horn 15 kg): 12 kg
Production amount of stag's horn: the second horn collected in the next spring ([2]; Elk 34, 500 kg, dose 500 mg (1.0 mg/kg), first horn 15 kg): 12 kg
Production amount of stag's horn: the second horn collected in the next spring ([2]; Elk 35, 500 kg, dose 750 mg (1.5 mg/kg), first horn 15 kg): 12 kg
Production amount of stag's horn: the second horn collected in the next spring ([2]; Elk 36, 500 kg, dose 1,000 mg (2.0 mg/kg), first horn 15 kg): 12 kg
Production amount of stag's horn: the second horn collected in the next spring ([2]; Elk 37, 500 kg, dose 2,500 mg (5.0 mg/kg), first horn 15 kg): 5 kg
Production amount of stag's horn: the second horn collected in the next spring ([2]; Elk 38, 500 kg, dose 5,000 mg (10 mg/kg), first horn 15 kg): 5 kg
growth of stag's horn ([2]; elk 500 kg, doses 0.1, 0.2, 0.5, 1.0, 1.5, 2.0, 5.0 and 10 mg per kg): promoted
